The target in one assay is human recombinant GCL (Homo sapiens (Human), UniProt P48506). Nature of the assay: GCL enzyme profiling assay (ADP-Glo luminescence). In kind it is biochemical. Particulars: human recombinant GCL, ADP-Glo; read-out: GCL IC50. In a few lines: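 IC50 fitted by four-parameter logistic to luminescent ADP formation (ADP-Glo). Reaction at room temperature in HEPES pH 7.5 with 30 mM MgCl2, 0.2% F-127, 1% DMSO; 5 nM GCL and 0.6 mM ATP preincubated 1 h before adding 1 mM glutamate plus 1.2 mM α-aminobutyrate for 2 h.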

The next assay deals with RKN cells. As to the kind of experiment: RKN cell profiling assay (cell viability, CellTiter-Glo). Particulars: cell viability, read-out: Cell Killing EC50. In kind it is cell-based. Put shortly:
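Viability read by CellTiter-Glo luminescence after 96 h compound exposure (0.5% DMSO final) of cells plated at 1,000/well in 10% FBS F-12 and allowed 24 h attachment. Four-parameter fits gave EC50; rescue arms used ferrostatin-1, 1.5 μM, present from seeding.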
(In general: In ATP-based viability assays light output follows the ATP content of the culture.)

human recombinant GCL, sequence (P48506 whole entry): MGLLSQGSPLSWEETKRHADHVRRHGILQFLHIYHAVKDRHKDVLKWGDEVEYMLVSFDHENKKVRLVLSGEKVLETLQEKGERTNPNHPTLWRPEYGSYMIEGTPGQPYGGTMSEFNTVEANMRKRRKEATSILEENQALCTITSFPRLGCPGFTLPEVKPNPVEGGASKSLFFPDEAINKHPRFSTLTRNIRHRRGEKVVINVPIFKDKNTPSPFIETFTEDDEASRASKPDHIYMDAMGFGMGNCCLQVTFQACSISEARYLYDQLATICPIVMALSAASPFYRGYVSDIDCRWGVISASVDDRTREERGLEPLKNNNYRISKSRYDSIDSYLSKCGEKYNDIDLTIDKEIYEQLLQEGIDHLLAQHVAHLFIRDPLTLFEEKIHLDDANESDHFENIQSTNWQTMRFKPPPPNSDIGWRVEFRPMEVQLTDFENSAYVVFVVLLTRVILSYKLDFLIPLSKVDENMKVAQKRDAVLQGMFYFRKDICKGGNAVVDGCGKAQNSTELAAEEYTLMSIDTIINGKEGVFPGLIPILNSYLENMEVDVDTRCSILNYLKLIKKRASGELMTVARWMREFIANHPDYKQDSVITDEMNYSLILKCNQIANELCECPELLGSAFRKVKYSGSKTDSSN

As for `N=S(=O)(CC[C@H](N)C(=O)O)CCC1(c2ccc3[nH]ncc3c2)CCC1` (stereo partly shown) [Compound 394], on human recombinant GCL, the IC50 (commonly the point on the concentration scale where inhibition reaches its midpoint) was not above 20 µM. Further, the EC50 (commonly the concentration needed to bring the measured effect to its halfway point) in the assay with RKN cells was not below 1000 µM.
Take `N=S(=O)(CC[C@H](N)C(=O)O)CCC1(c2ccc3[nH]nnc3c2)CCC1` (stereo partly shown) [Compound 395]: the IC50 at human recombinant GCL is 20 to 2000 µM. In addition, in the assay with RKN cells, the EC50 is less than 1000 µM.
Turning to `N=S(=O)(CC[C@H](N)C(=O)O)CCC1(c2ccc3[nH]cnc3c2)CCC1` (stereo partly shown) [Compound 396], on human recombinant GCL, the IC50 lay in the range of 20 to 2000 µM. Moreover, in the assay with RKN cells, the EC50 is not below 1000 µM.
In the case of `COc1ccccc1C(CCS(=N)(=O)CC[C@H](N)C(=O)O)C(F)(F)F` (stereo partly shown) [Compound 398], the IC50 at human recombinant GCL is not above 20 µM. The EC50 in the assay with RKN cells was less than 1000 µM.
On the same counts, the results for `COc1ccc(-c2ccc(C3(CCS(=N)(=O)CC[C@H](N)C(=O)O)CCC3)cc2)c(Cl)c1` (stereo partly shown) [Compound 400] are not above 20 µM and less than 1000 µM.
On the same counts, the results for `N=S(=O)(CC[C@H](N)C(=O)O)CCC1(c2ccc(-c3ccc(O)cc3Cl)cc2)CCC1` (stereo partly shown) [Compound 401] are not above 20 µM and not below 1000 µM.
On the same counts, the results for `N=S(=O)(CC[C@H](N)C(=O)O)CCC1(c2ccc(-c3ccc(Cl)cc3Cl)cc2)CCC1` (stereo partly shown) [Compound 402] are not above 20 µM and less than 1000 µM.
Take `N=S(=O)(CCC(n1nccn1)C(F)(F)F)CC[C@H](N)C(=O)O` (stereo partly drawn) [Compound 404, (2S)-2-amino-4-[[4,4,4-trifluoro-3-(triazol-2-yl)butyl]sulfonimidoyl]butanoic acid]: the IC50 on human recombinant GCL was in the range of 20 to 2000 µM. In addition, the EC50 in the assay with RKN cells is less than 1000 µM.
Turning to `N=S(=O)(CC[C@H](N)C(=O)O)CCC1(n2nccn2)CCC1` (stereo partly drawn) [Compound 405, (2S)-4-(2-(1-(2H-1,2,3-triazol-2-yl)cyclobutyl)ethylsulfonimidoyl)-2-aminobutanoic acid], the IC50 at human recombinant GCL lay within 20 to 2000 µM. Also, the EC50 in the assay on RKN cells is less than 1000 µM.
In the case of `Cc1cnn(C(CCS(=N)(=O)CC[C@H](N)C(=O)O)C(F)(F)F)n1` (stereo partly shown) [Compound 406], the IC50 at human recombinant GCL is not above 20 µM. Further, in the assay on RKN cells, the EC50 was less than 1000 µM.
Turning to `N=S(=O)(CCC(n1ncc(-c2ccccn2)n1)C(F)(F)F)CC[C@H](N)C(=O)O` (stereo partly shown) [Compound 407], on human recombinant GCL, the IC50 was not above 20 µM. Also, the EC50 in the assay with RKN cells is not below 1000 µM.
On the same counts, the results for `N=S(=O)(CCC(n1ncc(-c2cccnc2)n1)C(F)(F)F)CC[C@H](N)C(=O)O` (stereo partly shown) [Compound 408] are not above 20 µM and not below 1000 µM.
With `N=S(=O)(CCC(n1ncc(-c2ccccc2)n1)C(F)(F)F)CC[C@H](N)C(=O)O` (stereo partly shown) [Compound 409], on human recombinant GCL, the IC50 is not above 20 µM. In the assay on RKN cells, the EC50 was less than 1000 µM.
Regarding `N=S(=O)(CCC(n1nc2ccccc2n1)C(F)(F)F)CC[C@H](N)C(=O)O` (stereo partly shown) [Compound 410], at human recombinant GCL, the IC50 is not above 20 µM. In addition, the EC50 in the assay with RKN cells is not below 1000 µM.
Take `N=S(=O)(CCC(n1cccn1)C(F)(F)F)CC[C@H](N)C(=O)O` (stereo partly shown) [Compound 411]: the IC50 at human recombinant GCL was 20 to 2000 µM. In the assay with RKN cells, the EC50 is less than 1000 µM.
Turning to `Cc1ccn(C(CCS(=N)(=O)CC[C@H](N)C(=O)O)C(F)(F)F)n1` (stereo partly shown) [Compound 412], the IC50 on human recombinant GCL is 20 to 2000 µM. For the same molecule, in the assay on RKN cells, the EC50 was not below 1000 µM.
On the same counts, the results for `N=S(=O)(CCC(n1ccc(C2CC2)n1)C(F)(F)F)CC[C@H](N)C(=O)O` (stereo partly shown) [Compound 413] are 20 to 2000 µM and not below 1000 µM.
On the same counts, the results for `N=S(=O)(CCC(n1ccc(-c2cccnc2)n1)C(F)(F)F)CC[C@H](N)C(=O)O` (stereo partly shown) [Compound 414] are 20 to 2000 µM and not below 1000 µM.
In the case of `N=S(=O)(CCC(n1ccc(-c2ccccn2)n1)C(F)(F)F)CC[C@H](N)C(=O)O` (stereo partly shown) [Compound 415], on human recombinant GCL, the IC50 was in the range of 20 to 2000 µM. In addition, the EC50 in the assay on RKN cells is not below 1000 µM.
Turning to `N=S(=O)(CCC(n1ccc(-c2ccccc2)n1)C(F)(F)F)CC[C@H](N)C(=O)O` (stereo partly shown) [Compound 416], on human recombinant GCL, the IC50 is not above 20 µM. For the same molecule, the EC50 with RKN cells was not below 1000 µM.
With `Cc1cnn(C2(CCS(=N)(=O)CC[C@H](N)C(=O)O)CCC2)n1` (stereo partly shown) [Compound 417], on human recombinant GCL, the concentration for half-maximal inhibition (IC50) lay in the range of 20 to 2000 µM. Further, the EC50 in the assay with RKN cells was less than 1000 µM.
On the same counts, the results for `N=S(=O)(CC[C@H](N)C(=O)O)CCC1(n2ncc(-c3ccccn3)n2)CCC1` (stereo partly shown) [Compound 418] are 20 to 2000 µM and not below 1000 µM.
On the same counts, the results for `N=S(=O)(CC[C@H](N)C(=O)O)CCC1(n2ncc(-c3cccnc3)n2)CCC1` (stereo partly shown) [Compound 419] are 20 to 2000 µM and not below 1000 µM.
`N=S(=O)(CC[C@H](N)C(=O)O)CCC1(n2ncc(-c3ccccc3)n2)CCC1` (stereo partly shown) [Compound 420]: on human recombinant GCL, the IC50 was not above 20 µM. For the same molecule, the EC50 in the assay on RKN cells is not below 1000 µM.
As for `N=S(=O)(CC[C@H](N)C(=O)O)CCC1(n2nc3ccccc3n2)CCC1` (stereo partly shown) [Compound 421], the IC50 on human recombinant GCL was not above 20 µM. Besides, the EC50 in the assay with RKN cells was not below 1000 µM.
On the same counts, the results for `N=S(=O)(CC[C@H](N)C(=O)O)CCC(O)(c1ccc(-c2ccccc2)cc1)C(F)(F)F` (stereo partly drawn) [Compound 424, (2S)-4-(3-([1,1′-biphenyl]-4-yl)-4,4,4-trifluoro-3-hydroxybutylsulfonimidoyl)-2-aminobutanoic acid] are not above 20 µM and less than 1000 µM.
On the same counts, the results for `N=S(=O)(CC[C@H](N)C(=O)O)CCC(O)(c1ccc(-c2ccc3ccc(=O)oc3c2)cc1)C(F)(F)F` (stereo partly drawn) [Compound 425, (2S)-2-amino-4-(4,4,4-trifluoro-3-hydroxy-3-(4-(2-oxo-2H-chromen-7-yl)phenyl)butylsulfonimidoyl)butanoic acid] are not above 20 µM and not below 1000 µM.
On the same counts, the results for `N=S(=O)(CC[C@H](N)C(=O)O)CCC(O)(c1ccc(-n2cccn2)cc1)C(F)(F)F` (stereo partly drawn) [Compound 426, (2S)-4-(3-(4-(1H-pyrazol-1-yl)phenyl)-4,4,4-trifluoro-3-hydroxybutylsulfonimidoyl)-2-aminobutanoic acid] are 20 to 2000 µM and not below 1000 µM.
As to `N[C@@H](CCS(=O)(=O)CCC(O)(c1ccc(-c2ccc(Cl)cc2Cl)cc1)C(F)(F)F)C(=O)O` (stereo partly drawn) [Compound 427, (2S)-2-amino-4-((3-(2′, 4′-dichloro-[1, 1′-biphenyl]-4-yl)-4,4,4-trifluoro-3-hydroxybutyl)sulfonyl) butanoic acid], the IC50 on human recombinant GCL was 20 to 2000 µM. Further, in the assay on RKN cells, the EC50 was not below 1000 µM.
Take `N=S(=O)(CC[C@H](N)C(=O)O)CCC(O)(c1ccc(-c2ccc(Cl)cc2Cl)cc1)C(F)(F)F` (stereo partly shown) [Compound 428]: the IC50 at human recombinant GCL is not above 20 µM. In addition, the EC50 in the assay with RKN cells is less than 1000 µM.
On the same counts, the results for `N=S(=O)(CC[C@H](N)C(=O)O)CCC(O)(c1ccc(-c2ccccc2O)cc1)C(F)(F)F` (stereo partly shown) [Compound 434] are not above 20 µM and less than 1000 µM.
On the same counts, the results for `Cc1ccc(-c2ccc(C(O)(CCS(=N)(=O)CC[C@H](N)C(=O)O)C(F)(F)F)cc2)c(C)c1` (stereo partly shown) [Compound 438] are not above 20 µM and less than 1000 µM.
On the same counts, the results for `N=S(=O)(CC[C@H](N)C(=O)O)CCC(O)(c1ccc(-c2ccc(C(F)(F)F)cc2C(F)(F)F)cc1)C(F)(F)F` (stereo partly shown) [Compound 439] are not above 20 µM and less than 1000 µM.
Regarding `COc1cc(OC(F)(F)F)ccc1-c1ccc(C(O)(CCS(=N)(=O)CC[C@H](N)C(=O)O)C(F)(F)F)cc1` (stereo partly shown) [Compound 440], the IC50 on human recombinant GCL is not above 20 µM. Further, the EC50 in the assay with RKN cells is less than 1000 µM.
In the case of `N=S(=O)(CC[C@H](N)C(=O)O)CCC(O)(c1ccc(-c2ccc(C(F)(F)F)cc2Cl)cc1)C(F)(F)F` (stereo partly shown) [Compound 441], at human recombinant GCL, the IC50 lay in the range of 20 to 2000 µM. In addition, the EC50 in the assay on RKN cells is less than 1000 µM.

For the origin of these results see patent publication US20260034094A1, “COMPOSITIONS AND METHODS FOR INDUCING FERROPTOSIS” (Kojin Therapeutics, Inc., priority 2022, published 2026).
